The values below come from patent US9980973B2, “Bicyclic heterocycle compounds and their uses in therapy” (ASTEX THERAPEUTICS LIMITED, priority 2012, dated 2018).

Counter-ions that a name gives are not always drawn. Like-named read-outs stand apart in the source and are kept apart here.

The test system of assay [1] is EVSA-T (human breast carcinoma). The assay is described as follows: Anti-proliferative activity, Alamar Blue assay, EVSA-T. Type of assay: cell-based.
In assay [2] the target is T1, BIR3 domain of human XIAP (Homo sapiens, UniProt P98170).
T1 construct: BIR3 domain of human XIAP (residues 252-350) fused to a His-tag; His-tag (cleaved yes); made in house; host or cells: Escherichia coli
The assay is described as follows: XIAP in vitro competitive displacement binding assay (fluorescence polarization). To be noted: for inhibition at 0.04 µM: 1 h, PI at 0.04 μM, read-out: Xiap IC50 or PI μM (PI).

[3] abbreviates: Homo sapiens, EVSA-T, 72 h, EVSA-T cells, 72 hours, Alamar Blue, read-out: EVSA-T prolif.
[4] abbreviates: Homo sapiens, EVSA-T, read-out: EC50 in EVSA-T cell line assays.
[5] abbreviates: EVSA-T cells, 72 hours, Alamar Blue, dihydrochloride, read-out: EVSA-T prolif.
Setting [6] is: or at least 50% inhibition of the activity at 0.1 μM, read-out: IC50 in the XIAP assay.
The mark [7] stands for this setting: plain number = IC50, average where more than one data point, read-out: Xiap IC50 or PI μM (IC50).

T1 sequence (P98170 252-350): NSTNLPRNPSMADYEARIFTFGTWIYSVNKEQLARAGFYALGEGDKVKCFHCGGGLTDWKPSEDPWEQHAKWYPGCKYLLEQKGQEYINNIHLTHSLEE

Take `C[C@@H]1CN(CC(=O)N2CC(C)(C)c3cnc(Cc4ccc(F)cc4)cc32)[C@@H](CN2[C@H](C)COC[C@H]2C)CN1` [Example 55, 2-[(2R,5R)-2-{[(3R,5R)-3,5-Dimethylmorpholin-4-yl]methyl}-5-methylpiperazin-1-yl]-1-{6-[(4-fluorophenyl)methyl]-3,3-dimethyl-1H,2H,3H-pyrrolo[3,2-c]pyridin-1-yl}ethan-1-one, dihydrochloride]: the EC50 in assay [1] (setting [3]) is 0.23 nM; in assay [1] (setting [4]), < 1000 nM. Also, the inhibition at 0.04 µM in assay [2] stood at 59%.

As for `C[C@@H]1CN(CC(=O)N2CC(C)(C)c3ncc(C(O)c4cc(F)ccc4F)cc32)[C@@H](CN2[C@H](C)COC[C@H]2C)CN1` (single isomer, unassigned) [Example 116, 1-{(R or S)-6-[(2,5-Difluorophenyl)(hydroxy)meth-yl]-3,3-dimethyl-1H,2H,3H-pyrrolo[3,2-b]pyridin-1-yl}-2-[(2R,5R)-2-{[(3R,5R)-3,5-dimethylmorpholin-4-yl]methyl}-5-methylpiperazin-1-yl]ethan-1-one dihydrochloride], in assay [1] (setting [5]), the EC50 is 55 nM. For the same compound, the inhibition at 0.04 µM in assay [2] is 47%.

Regarding `COC[C@@]1(C)COCCN1C[C@H]1CN[C@H](C)CN1CC(=O)N1CC(C)(C)c2cnc(Cc3ccc(F)cc3F)cc21` [Example 98, 1-{6-[(2,4-Difluorophenyl)methyl]-3,3-dimethyl-1H,2H,3H-pyrrolo[3,2-c]pyridin-1-yl}-2-[(2R,5R)-2-{[(3S)-3-(methoxymethyl)-3-methylmorpholin-4-yl]methyl}-5-methylpiperazin-1-yl]ethan-1-one dihydrochloride], the EC50 in assay [1] (setting [3]) is 7.3 nM; in assay [1] (setting [4]) it was < 1000 nM. In assay [2], the inhibition at 0.04 µM is 62%. Besides, in assay [2] (setting [6]), the IC50 was < 0.1 µM.

Take `COC[C@@H]1COCCN1C[C@H]1CN[C@H](C)CN1CC(=O)N1CC(C)(C)c2ncc(Cc3ccc(F)cc3)cc21` [Example 1, 1-{6-[(4-Fluorophenyl)methyl]-3,3-dimethyl-1H,2H,3H-pyrrolo[3,2-b]pyridin-1-yl}-2-[(2R,5R)-2-{[(3R)-3-(methoxymethyl)morpholin-4-yl]methyl}-5-methylpiperazin-1-yl]ethan-1-one dihydrochloride]: the EC50 was 2.9 nM in assay [1] (setting [3]) and < 1000 nM in assay [1] (setting [4]). Besides, in assay [2], the inhibition at 0.04 µM came out at 35%.

As for `COC[C@]1(C)COCCN1C[C@H]1CN[C@H](C)CN1CC(=O)N1CC(C)(C)c2cnc(Cc3ccc(F)cc3F)cc21` [Example 97, 1-{6-[(2,4-Difluorophenyl)methyl]-3,3-dimethyl-1H,2H,3H-pyrrolo[3,2-c]pyridin-1-yl}-2-[(2R,5R)-2-{[(3R)-3-(methoxymethyl)-3-methylmorpholin-4-yl]methyl}-5-methylpiperazin-1-yl]ethan-1-one dihydrochloride], the figures for the EC50 in assay [1] (setting [3]) and in assay [1] (setting [4]) were 2.3 nM and < 1000 nM, respectively. Moreover, the inhibition at 0.04 µM in assay [2] came to 44%.

With `C[C@@H]1CN(CC(=O)N2CC(C)(C)c3ncc(C(O)c4cccc(F)c4F)cc32)[C@@H](CN2[C@H](C)COC[C@H]2C)CN1` (single isomer, unassigned) [Example 111, (R or S)-1-{6-[(2,3-Difluorophenyl)(hydroxy)meth-yl]-3,3-dimethyl-1H,2H,3H-pyrrolo[3,2-b]pyridin-1-yl}-2-[(2R,5R)-2-{[(3R,5R)-3,5-dimethylmorpholin-4-yl]methyl}-5-methylpiperazin-1-yl]ethan-1-one dihydrochloride], the EC50 in assay [1] (setting [3]) was 25 nM; in assay [1] (setting [4]), < 1000 nM. The inhibition at 0.04 µM in assay [2] was 45%.

Consider `C[C@@H]1CN(CC(=O)N2CC(C)(C)c3ncc(Cc4ccc(F)cc4)cc32)[C@@H](CN2CCNC(=O)[C@H]2C)CN1` [Example 35, (3R)-4-{[(2R,5R)-1-(2-{6-[(4-Fluorophenyl)methyl]-3,3-dimethyl-1H,2H,3H-pyrrolo[3,2-b]pyridin-1-yl}-2-oxoethyl)-5-methylpiperazin-2-yl]methyl}-3-methylpiperazin-2-one], for which the results for the EC50 in assay [1] (setting [3]) and in assay [1] (setting [4]) were 1.9 nM and < 1000 nM, respectively. In addition, the inhibition at 0.04 µM in assay [2] stood at 54%. In assay [2] (setting [6]), the IC50 was < 0.1 µM.

With `CC(=O)N1CCN(C[C@H]2CN[C@H](C)CN2CC(=O)N2CC(C)(C)c3cnc(Cc4ccc(F)cc4)cc32)[C@H](C)C1` [Example 56, 2-[(2R,5R)-2-{[(2R)-4-Acetyl-2-methylpiperazin-1-yl]methyl}-5-methylpiperazin-1-yl]-1-{6-[(4-fluorophenyl)methyl]-3,3-dimethyl-1H,2H,3H-pyrrolo[3,2-c]pyridin-1-yl}ethan-1-one, dihydrochloride], the EC50 is 0.42 nM in assay [1] (setting [3]) and < 1000 nM in assay [1] (setting [4]). Also, in assay [2], the inhibition at 0.04 µM was found to be 70%.

For the compound `C[C@@H]1CN(CC(=O)N2CC(C)(C)c3ncc(Cc4ccc(F)cc4)cc32)[C@@H](CN2CCCCC2C(F)(F)F)CN1` (single isomer, unassigned) [Example 24, 1-{6-[(4-Fluorophenyl)methyl]-3,3-dimethyl-1H,2H,3H-pyrrolo[3,2-b]pyridin-1-yl}-2-[(2R,5R)-5-methyl-2-{[2-([R or S]trifluoromethyl)piperidin-1-yl]methyl}piperazin-1-yl]ethan-1-one hydrochloride], the EC50 is 13 nM in assay [1] (EVSA-T cells, 72 hours, Alamar Blue, hydrochloride, read-out: EVSA-T prolif) and < 1000 nM in assay [1] (setting [4]). Besides, the concentration for half-maximal inhibition (IC50) in assay [2] (setting [7]) came to 0.13 µM.

`C[C@@H]1CN(CC(=O)N2CC(C)(C)c3ncc(C(O)c4ccccc4F)cc32)[C@@H](CN2[C@H](C)COC[C@H]2C)CN1` (single isomer, unassigned) [Example 107, 2-[(2R,5R)-2-{[(3R,5R)-3,5-Dimethylmorpholin-4-yl]methyl}-5-methylpiperazin-1-yl]-1-{6-[(R or S)-(2-fluorophenyl)-(hydroxy)methyl]-3,3-dimethyl-1H,2H,3H-pyrrolo[3,2-b]pyridin-1-yl}ethan-1-one dihydrochloride]: the EC50 in assay [1] (setting [5]) was 7.1 nM; in assay [1] (setting [4]), < 1000 nM. The inhibition at 0.04 µM in assay [2] stood at 57%.

As to `C[C@@H]1CN(CC(=O)N2CC(C)(C)c3ncc(Cc4ccc(F)cc4)cc32)[C@@H](CN2CCNC(=O)C2)CN1` [Example 42, 4-{[(2R,5R)-1-(2-{6-[(4-Fluorophenyl)methyl]-3,3-dimethyl-1H,2H,3H-pyrrolo[3,2-b]pyridin-1-yl}-2-oxoethyl)-5-methylpiperazin-2-yl]methyl}piperazin-2-one dihydrochloride], the EC50 in assay [1] (setting [3]) was 11 nM; in assay [1] (setting [4]), < 1000 nM. Further, the inhibition at 0.04 µM in assay [2] worked out at 44%.

`C[C@@H]1CN(CC(=O)N2CC(C)(C)c3ncc(Cc4ccc(F)cc4)cc32)[C@@H](CN2CCN(C)C(=O)[C@H]2C)CN1` [Example 34, (3R)-4-{[(2R,5R)-1-(2-{6-[(4-Fluorophenyl)methyl]-3,3-dimethyl-1H,2H,3H-pyrrolo[3,2-b]pyridin-1-yl}-2-oxoethyl)-5-methylpiperazin-2-yl]methyl}-1,3-dimethylpiperazin-2-one dihydrochloride]: the EC50 is 0.85 nM in assay [1] (setting [3]) and < 1000 nM in assay [1] (setting [4]). Further, the inhibition at 0.04 µM in assay [2] amounted to 42%.

Regarding `C[C@@H]1CN(CC(=O)N2CC(C)(C)c3ncc(Cc4ccc(F)cc4)cc32)[C@@H](CN2CCN(c3ncccn3)C[C@H]2C)CN1` [Example 53, 1-{6-[(4-Fluorophenyl)methyl]-3,3-dimethyl-1H,2H,3H-pyrrolo[3,2-b]pyridin-1-yl}-2-[(2R,5R)-5-methyl-2-{[(2R)-2-methyl-4-(pyrimidin-2-yl)piperazin-1-yl]methyl}piperazin-1-yl]ethan-1-one, dihydrochloride], the EC50 in assay [1] (setting [3]) is 0.61 nM; in assay [1] (setting [4]), < 1000 nM. Further, the inhibition at 0.04 µM in assay [2] was determined as 59%.

On to `C[C@@H]1CN(CC(=O)N2CC(C)(C)c3nnc(Cc4ccc(F)cc4)cc32)[C@@H](CN2[C@H](C)COC[C@H]2C)CN1` [Example 87, 2-[(2R,5R)-2-{[(3R,5R)-3,5-Dimethylmorpholin-4-yl]methyl}-5-methylpiperazin-1-yl]-1-{3-[(4-fluorophenyl)methyl]-7,7-dimethyl-5H,6H,7H-pyrrolo[3,2-c]pyridazin-5-yl}ethan-1-one dihydrochloride], for which the results for the EC50 in assay [1] (setting [3]) and in assay [1] (setting [4]) were 0.66 nM and < 1000 nM, respectively. In addition, the half-maximal inhibitory concentration (IC50) in assay [2] (setting [7]) worked out at 0.14 µM.

For the compound `CC(=O)N1CCN(C[C@H]2CN[C@H](C)CN2CC(=O)N2CC(C)(C)c3ncc(Cc4ccc(F)cc4)cc32)[C@H](C)C1` [Example 52, 2-[(2R,5R)-2-{[(2R)-4-Acetyl-2-methylpiperazin-1-yl]methyl}-5-methylpiperazin-1-yl]-1-{6-[(4-fluorophenyl)methyl]-3,3-dimethyl-1H,2H,3H-pyrrolo[3,2-b]pyridin-1-yl}ethan-1-one, dihydrochloride], the results for the EC50 in assay [1] (setting [3]) and in assay [1] (setting [4]) were 1 nM and < 1000 nM, respectively. The inhibition at 0.04 µM in assay [2] was found to be 49%.

On to `CCC(F)(F)c1cnc2c(c1)N(C(=O)CN1C[C@@H](C)NC[C@@H]1CN1[C@H](C)COC[C@H]1C)CC2(C)C` [Example 43, 1-[6-(1,1-Difluoropropyl)-3,3-dimethyl-1H,2H,3H-pyrrolo[3,2-b]pyridin-1-yl]-2-[(2R,5R)-2-{[(3R,5R)-3,5-dimethylmorpholin-4-yl]methyl}-5-methylpiperazin-1-yl]ethan-1-one, dihydrochloride], for which the EC50 in assay [1] (setting [3]) was 8.3 nM; in assay [1] (setting [4]), < 1000 nM. Besides, the inhibition at 0.04 µM in assay [2] was determined as 62%.

On to `C[C@@H]1CN(CC(=O)N2CC(C)(C)c3ncc(Cc4ccc(F)cc4)cc32)[C@@H](CN2CCOC[C@H]2CO)CN1` [Example 2, 1-{6-[(4-Fluorophenyl)methyl]-3,3-dimethyl-1H,2H,3H-pyrrolo[3,2-b]pyridin-1-yl}-2-[(2R,5R)-2-{[(3R)-3-(hydroxymethyl)morpholin-4-yl]methyl}-5-methylpiperazin-1-yl]ethan-1-one dihydrochloride], for which the EC50 in assay [1] (setting [3]) is 1.7 nM; in assay [1] (setting [4]), < 1000 nM. The inhibition at 0.04 µM in assay [2] was 40%.
